Assay results as given in patent US4320051A, “Analgesic tripeptide amides” (American Home Products Corporation, priority 1980, dated 1982).
Values joined by “and” are separate entries in the source; they are usually repeats but may differ in a detail not shown here. Equal entries are not always repeated. Square brackets hold non-standard residues; d marks the D form. Ends that are not written are not given here.

Legend:
[1] = tested on: phenylbenzoquinone-induced writhing; assay: phenylbenzoquinone-induced writhing test; format: in vivo; details: subcutaneous, mice
Procedure: Exp. Biol. Med., 95, 729-731 (1957), by establishing three groups of ten mice (Carworth farms) per group (18-27 g. body weight). The animals receive the compound being tested (Examples 9 and 15) subsubcutaneously. Five or 20 minutes later each animal received 0.25 milliliters of the writhing agonist (i.e. 0.02% solution of PBQ). The animals receiving the writhing agonist five minutes after the test compound are observed for a period of ten minutes beginning five minutes after the injection. The animals receiving the writhing agonist 20 minutes after the test compound are observed for ten minutes beginning five minutes after the injection. A compound is an analgesic if it inhibits writhing induced by phenyl benzoquinone.

[2] = tested on: opiate receptor (3H-naloxone binding); assay: 3H-naloxone displacement (procedure of Chang et al.); parameters: 3H-naloxone displacement ED50: unit not given here
Description: Enkephalin, a natural opiate receptor agonist in the brain, has been identified [see Hughes et al., Nature, 258,577 (1975)] as a mixture of two pentapeptides: H-Tyr-Gly-Gly-Phe-Met-OH (methionine-enkephalin) and H-Tyr-Gly-Gly-Phe-Leu-OH (leucine-enkephalin). […] It has been reported that methionine-enkephalin and leucine-enkephalin, when administered by injection in the brain ventricle in rats, induce a profound analgesia that is fully reversible by naloxone. [See Beluzzi et al., Nature, 260, 625 (1976)].

[3] = intravenous administration, relative to morphine; cited from earlier work

Compound | ED50 mg/kg. (confidence limits) ([1]; Time 15 minutes) | ED50 mg/kg. (confidence limits) ([1]; Time 30 minutes) | 3H-naloxone displacement ED50 [2] | relative displacement potency ([2]; 3H-naloxone displacement, morphine=1) | times more potent than morphine [3]
C[C@@H](NC(=O)[C@@H](N)Cc1ccc(O)cc1)C(=O)NCC(=O)NC(Cc1ccccc1)CN1CCN(C)CC1 (stereo partly drawn) [Example 9, L-Tyrosyl-D-alanyl-N-[1-[(4-methyl-1-piperazinyl)methyl]-2-phenyl-ethyl]glycinamide] | 1.05 (0.62-1.79) mg/kg | 4.60 (3.1-6.9) mg/kg and 6.20 (4.4-8.7) mg/kg | 1.36×10^-7 | 1.3 | –
Y[dM]GFP-NH2 | – | – | – | – | 5.5 times
